The assay concerns P388 leukemia ip, CD2F1 mice, survival T/C. In words: NCI In Vivo Anticancer Drug Screen. Data for tumor model P388 Leukemia (intraperitoneal) in CD2F1 (CDF1) mice. Conditions: endpoint: median survival time, higher = longer survival. The method in brief:
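Mice carrying the transplanted tumor received test compound or vehicle. Survival was recorded in each group, and the value is the treated-group measurement divided by that of the vehicle-treated control group.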

[1] abbreviates: dose: 50.0 mg/kg/injection, schedule: Q01DX009 (ip), vehicle: saline.
The mark [2] stands for this setting: dose: 100.0 mg/kg/injection, schedule: Q01DX009 (ip), vehicle: saline.
[3] abbreviates: dose: 200.0 mg/kg/injection, schedule: Q01DX009 (ip), vehicle: saline.
The mark [4] stands for this setting: dose: 50.0 mg/kg/injection, schedule: Q01DX005 (ip), vehicle: saline with Tween-80.
The mark [5] stands for this setting: dose: 100.0 mg/kg/injection, schedule: Q01DX005 (ip), vehicle: saline with Tween-80.
The mark [6] stands for this setting: dose: 200.0 mg/kg/injection, schedule: Q01DX005 (ip), vehicle: saline with Tween-80.
[7] abbreviates: dose: 12.5 mg/kg/injection, schedule: Q01DX009 (ip), vehicle: saline.
The mark [8] stands for this setting: dose: 25.0 mg/kg/injection, schedule: Q01DX009 (ip), vehicle: saline.
Setting [9] is: dose: 60.0 mg/kg/injection, schedule: Q01DX005 (ip), vehicle: saline with Tween-80.
Where [10] appears, read: dose: 120.0 mg/kg/injection, schedule: Q01DX005 (ip), vehicle: saline with Tween-80.

“And” between values parts separate entries of the source, which are not always exact repeats. Equal values may be shown once. Toxic doses and inconclusive results are not listed.

Regarding `CC(C)N(CCNc1cccnc1[N+](=O)[O-])C(C)C`, the T/C is, setting by setting: under setting [1], 115 % of control; under setting [2], 108 % of control; under setting [3], 117 % of control.

For the molecule `CN(C)CCCNC(=O)c1n[nH]c(=S)[nH]c1=O`, the T/C by setting is: under setting [4], 101 % of control; under setting [5], 100 % of control; under setting [6], 95 % of control.

As for `CC(=O)OC[C@]12CCC(C)=CC1O[C@@H]1C(OC(C)=O)[C@@H](O)[C@@]2(C)[C@]12CO2` (some centres undefined), the T/C was 116 % of control (dose: 0.5 mg/kg/injection, schedule: Q01DX009 (ip), vehicle: saline) and 165 % of control (dose: 4.0 mg/kg/injection, schedule: Q01DX009 (ip), vehicle: saline).

Regarding `COC(=O)C1=C(C(=O)OC)C2(C)C=CC1C1C(OC(C)=O)C(OC(C)=O)C12` (centres undefined), the T/C runs as follows: (dose: 100.0 mg/kg/injection, schedule: Q04DX003 (ip), vehicle: Klucel (hydroxypropylcellulose) (HPC)) 105 % of control; (dose: 200.0 mg/kg/injection, schedule: Q04DX003 (ip), vehicle: Klucel (hydroxypropylcellulose) (HPC)) 108 % of control; (dose: 400.0 mg/kg/injection, schedule: Q04DX003 (ip), vehicle: Klucel (hydroxypropylcellulose) (HPC)) 107 % of control.

For the molecule `COC(=O)c1nc(=S)[nH]c(C(=O)OC)c1C(=O)c1ccccc1`, the T/C runs as follows: (dose: 60.0 mg/kg/injection, schedule: Q01DX005 (ip), vehicle: Klucel + Tween-80) 101 % of control; (dose: 120.0 mg/kg/injection, schedule: Q01DX005 (ip), vehicle: Klucel + Tween-80) 93 % of control; (dose: 240.0 mg/kg/injection, schedule: Q01DX005 (ip), vehicle: Klucel + Tween-80) 92 % of control.

Take `CN(C)/C=C\c1c([N+](=O)[O-])ncn1C`: the T/C reads like this: under setting [4], 99 % of control; under setting [5], 99 % of control; under setting [6], 97 % of control.

For the molecule `CS(=O)(=O)Oc1cccn(S(C)(=O)=O)c1=O`, the T/C was 97 % of control under setting [7]; 92 % of control under setting [8]; 97 % of control under setting [1]; 97 % of control under setting [2]; 97 % of control under setting [3].

Take `O=C1CSC(=S)N1c1ccc2c(c1)OCO2`: the T/C is 92 % of control under setting [9]; 90 % of control under setting [10]; 90 % of control (dose: 240.0 mg/kg/injection, schedule: Q01DX005 (ip), vehicle: saline with Tween-80).

Take `CCCC1OCC2OC(Nc3ccccc3)C(O)C(O)C2O1` (centres undefined): the T/C runs as follows: under setting [4], 103 % of control; under setting [5], 98 % of control; under setting [6], 103 % of control.

For `Cc1cnc(C)[nH]1`, the T/C by setting is: under setting [4], 102 % of control; under setting [5], 86 % of control; under setting [6], 102 % of control.

With `CCOC(=O)c1ccc2c(c1)C(C)(SC)C(=O)N2` (centres undefined), the T/C reads like this: (dose: 25.0 mg/kg/injection, schedule: Q01DX009 (ip), vehicle: saline with Tween-80) 96 % of control; (dose: 50.0 mg/kg/injection, schedule: Q01DX009 (ip), vehicle: saline with Tween-80) 100 % of control; (dose: 100.0 mg/kg/injection, schedule: Q01DX009 (ip), vehicle: saline with Tween-80) 93 % of control.

On to `COCC(O)Cn1ccnc1N=Nc1ccccc1` (centres undefined), for which the T/C is, setting by setting: under setting [9], 103 % of control; under setting [10], 102 % of control.

As for `O=c1n(CC2CO2)c(=O)n(CC2CO2)c(=O)n1CC1CO1` (centres undefined), the T/C is, setting by setting: (dose: 6.25 mg/kg/injection, schedule: Q01DX009 (ip), vehicle: suspension in saline) 203 % of control and 172 % of control; under setting [7], 165 % of control and 186 % of control; (dose: 12.5 mg/kg/injection, schedule: Q01DX009 (ip), vehicle: suspension in saline) 197 % of control and 216 % of control; (dose: 15.0 mg/kg/injection, schedule: Q01DX005 (ip), vehicle: saline with Tween-80) 200 % of control; (dose: 15.0 mg/kg/injection, schedule: Q01DX005 (ip), vehicle: saline) 161 % of control; (dose: 20.0 mg/kg/injection, schedule: Q01DX009 (ip), vehicle: saline) 313 % of control. Also, the T/C is 172 % of control and 220 % of control (dose: 20.0 mg/kg/injection, schedule: Q01DX009 (sc), vehicle: saline); 167 % of control and 205 % of control under setting [8]; 226 % of control and 281 % of control (dose: 25.0 mg/kg/injection, schedule: Q01DX009 (ip), vehicle: suspension in saline); 157 % of control and 265 % of control (dose: 25.0 mg/kg/injection, schedule: Q01DX009 (sc), vehicle: saline); 192 % of control (dose: 30.0 mg/kg/injection, schedule: Q01DX005 (ip), vehicle: saline); 272 % of control and 290 % of control and 316 % of control (dose: 30.0 mg/kg/injection, schedule: Q01DX009 (ip), vehicle: saline). For the same molecule, the T/C (dose: 30.0 mg/kg/injection, schedule: Q01DX009 (sc), vehicle: saline) is 161 % of control and 247 % of control; the T/C (dose: 40.0 mg/kg/injection, schedule: Q01DX009 (sc), vehicle: saline) was 277 % of control; the T/C (dose: 40.0 mg/kg/injection, schedule: Q04DX003 (ip), vehicle: saline) was 184 % of control and 188 % of control and 218 % of control; the T/C under setting [1] was 200 % of control [middle of 5 runs]; the T/C (dose: 50.0 mg/kg/injection, schedule: Q01DX009 (ip), vehicle: suspension in saline) is 100 % of control; the T/C (dose: 50.0 mg/kg/injection, schedule: Q04DX003 (ip), vehicle: saline) was 206 % of control and 217 % of control and 290 % of control. For the same molecule, the T/C by setting is: (dose: 60.0 mg/kg/injection, schedule: Q01DX001 (ip), vehicle: other) 262 % of control and 271 % of control; (dose: 60.0 mg/kg/injection, schedule: Q01DX001 (ip), vehicle: saline) 271 % of control; (dose: 60.0 mg/kg/injection, schedule: Q01DX001 (ip), vehicle: water) 260 % of control; (dose: 60.0 mg/kg/injection, schedule: Q04DX003 (ip), vehicle: saline) 233 % of control and 245 % of control and 300 % of control; (dose: 70.0 mg/kg/injection, schedule: Q01DX001 (ip), vehicle: other) 231 % of control and 281 % of control; (dose: 70.0 mg/kg/injection, schedule: Q01DX001 (ip), vehicle: saline) 274 % of control. Also, the T/C (dose: 70.0 mg/kg/injection, schedule: Q01DX001 (ip), vehicle: water) is 184 % of control; the T/C (dose: 80.0 mg/kg/injection, schedule: Q01DX001 (ip), vehicle: other) was 291 % of control and 349 % of control; the T/C (dose: 80.0 mg/kg/injection, schedule: Q01DX001 (ip), vehicle: saline) was 291 % of control; the T/C (dose: 80.0 mg/kg/injection, schedule: Q01DX001 (ip), vehicle: water) was 223 % of control; the T/C (dose: 90.0 mg/kg/injection, schedule: Q01DX001 (ip), vehicle: saline) is 420 % of control; the T/C (dose: 100.0 mg/kg/injection, schedule: Q01DX001 (ip), vehicle: saline) is 210 % of control. The T/C by setting is: under setting [2], 285 % of control and 156 % of control and 228 % of control; under setting [3], 107 % of control.

For `COc1cccc2c1C(=O)c1c(O)c3c(c(O)c1C2=O)C[C@@](O)(CCO)C[C@@H]3OC1CC(N)C(O)C(C)O1` (some centres undefined), the T/C reads like this: (dose: 0.39 mg/kg/injection, schedule: Q01DX009 (ip), vehicle: water) 151 % of control; (dose: 0.78 mg/kg/injection, schedule: Q01DX009 (ip), vehicle: water) 158 % of control and 164 % of control; (dose: 1.2 mg/kg/injection, schedule: Q04DX003 (ip), vehicle: water) 119 % of control; (dose: 1.56 mg/kg/injection, schedule: Q01DX009 (ip), vehicle: water) 153 % of control and 158 % of control; (dose: 2.4 mg/kg/injection, schedule: Q04DX003 (ip), vehicle: water) 106 % of control and 112 % of control; (dose: 3.13 mg/kg/injection, schedule: Q01DX009 (ip), vehicle: water) 163 % of control and 164 % of control. Further, the T/C reads like this: (dose: 4.7 mg/kg/injection, schedule: Q04DX003 (ip), vehicle: water) 120 % of control; (dose: 6.25 mg/kg/injection, schedule: Q01DX009 (ip), vehicle: water) 153 % of control; (dose: 9.4 mg/kg/injection, schedule: Q04DX003 (ip), vehicle: water) 154 % of control; (dose: 18.8 mg/kg/injection, schedule: Q04DX003 (ip), vehicle: water) 158 % of control; (dose: 75.0 mg/kg/injection, schedule: Q04DX003 (ip), vehicle: water) 97 % of control.

For the molecule `O=S1CCS(=O)C1c1ccccc1` (centres undefined), the T/C reads like this: (dose: 50.0 mg/kg/injection, schedule: Q01DX005 (ip), vehicle: other) 99 % of control; (dose: 100.0 mg/kg/injection, schedule: Q01DX005 (ip), vehicle: other) 103 % of control.

In the case of `O=C(O)C(O)(C1CCCCC1)C1CCC(C2CCCCC2)CC1C1CCCCC1` (centres undefined), the T/C was 98 % of control under setting [4], 102 % of control under setting [5] and 100 % of control under setting [6].
